We go through 18 molecules from patent publication US10023591B2, “Heterocyclic derivatives and use thereof” (C&C RESEARCH LABORATORIES, priority 2014, dated 2018).

Each structure is given as a SMILES string.

The subject of one assay is STAT3. As to the kind of experiment: STAT3 reporter gene assay (luciferase), LNCaP stable cell line pSTAT3-TA-luc, IL-6 stimulation. The assay is classed as cell-based, human. Particulars: Homo sapiens. Summed up: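 LNCaP cells stably carrying pSTAT3-TA-luc were plated 24 h in 3% DCC-FBS medium, then given compound followed by IL-6 (10 ng/mL final) for 24 h at 37 °C. Luciferase was read from lysates, with CellTiter-Glo viability on a duplicate plate. Stimulated 0.1% DMSO wells served as uninhibited control.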

Assay [1] has as its system DU-145 prostate cancer cell line. As to the kind of experiment: Cell growth inhibition assay, DU-145 (CellTiter-Glo). It is filed as cell-based. Particulars: Homo sapiens; DU-145, 3,000 cells/well, 96 hours. As to the method:
(§1) The inhibitory effects of the compounds of the present invention against the growth of cancer cells were evaluated as shown below. The cancer cell lines including prostate cancer cell lines (LNCaP, DU-145), stomach cancer cell line (NCI-N87), and breast cancer cell lines (MDA-MB-468) were cultured under the protocol provided by each supplier. A medium supplemented with 10 ng/mL of IL-6 was used for LNCaP, a prostate cancer cell line, when treated with a drug. Each type of cells to be used in experiments was sub-cultured in a 96-well plate by counting the exact number of cells using Tali™ Image-based Cytometer (Life Technologies). In a 96-well plate, DU-145 was employed with 3,000 cells/well; NCI-N87 was employed with 5,000 cells/well; and LNCaP and MDA-MB-468 were employed with 10,000 cells/well. The cells were treated with the compounds listed in Examples which were diluted in various concentrations. Upon completion of the compounds treatment, LNCaP, DU-145, NCI-N87 cells were cultured at 37° C. under 5% CO2 for 96 hours, and MDA-MB-468 cells were cultured at 37° C. in air for 96 hours. Subsequently, the cells were observed under microscope and drug precipitation and particular findings were investigated and recorded. And then, the 96-well plate was placed at room temperature for 30 minutes, added with 20 pt/well of CellTiter-Glo solution (Cat No. G7573, Promega) and shaken for 10 minutes, followed by being subjected to the measurement using PHERAstar™ microplate reader (BMG LABTECH) according to the supplier's general luminometer protocol. Wells where only culture liquid added without cell plating were used as a negative control, whereas wells where culture liquid containing 0.1% DMSO instead of the compounds listed in Examples were used as a positive control.

Assay [2] has as its system LNCaP prostate cancer cell line. The assay can be described thus: Cell growth inhibition assay, LNCaP (CellTiter-Glo). Conditions: Homo sapiens; LNCaP, 10,000 cells/well, medium with 10 ng/mL IL-6, 96 hours. The assay is classed as cell-based. As to the method:
as §1
(In general: Cellular ATP, detected with luciferase, serves as a proxy for viable cell number.)

The test system of another assay is STAT1. The assay can be described thus: STAT1 reporter gene assay (luciferase), U2OS stable cell line pGL4-STAT1-TA-luc, IFN-γ stimulation. The assay is classed as cell-based, human. Particulars: Homo sapiens, IFN-γ 50 ng/mL, 8 hours, read-out: IC50 (μM) pSTAT1. Put shortly: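 U2OS cells stably carrying a STAT1-driven luciferase reporter were treated with serially diluted compounds plus IFN-γ (50 ng/mL final) for 8 h at 37 °C in 10% FBS medium. Luciferase read after lysis; parallel plate assessed for cytotoxicity by CellTiter-Glo.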
Background: In a reporter assay the amount or activity of a reporter protein is the signal.

On to `CC(C)(c1ccc(Cl)cc1)c1cc(Cl)cc(NC(=O)c2cc3cc(CS(=O)(=O)C(F)(F)F)ccc3s2)c1` [Example 24, N-(3-chloro-5-(2-(4-chlorophenyl)propan-2-yl)phenyl)-5-(((trifluoromethyl)sulfonyl)methyl)benzo[b]thiophene-2-carboxamide], for which the concentration for half-maximal inhibition (IC50) (as a rule, the concentration that gives 50% inhibition) in the assay with STAT3 was 0.9 µM; in assay [1] it was greater than 1.1 µM; in assay [2], greater than 1.1 µM; with STAT1 it was greater than 50 µM.
`CC(C)(c1ccc(Cl)cc1)c1cc(Cl)cc(NC(=O)c2cc3cc(C4(S(C)(=O)=O)CC4)ccc3s2)c1` [Example 33, N-(3-chloro-5-(2-(4-chlorophenyl)propan-2-yl)phenyl)-5-(1-(methylsulfonyl)cyclopropyl)benzo[b]thiophene-2-carboxamide]: the IC50 in the assay with STAT3 was 0.054 µM; in assay [1], 0.023 µM; in assay [2], 0.03 µM; in the assay on STAT1 it was greater than 50 µM.
Regarding `CC(C)(c1ccc2cc(C(=O)Nc3cc(Cl)cc(Oc4ccc(Cl)cc4)c3)sc2c1)S(C)(=O)=O` [Example 58, N-(3-chloro-5-(4-chlorophenoxy)phenyl)-6-(2-(methylsulfonyl)propan-2-yl)benzo[b]thiophene-2-carboxamide], the IC50 is 0.86 µM in the assay on STAT3, 0.11 µM in assay [1], 0.24 µM in assay [2] and greater than 50 µM in the assay with STAT1.
As for `CC(C)(c1ccc(Cl)cc1)c1cc(Cl)cc(NC(=O)c2cc3cc(C4(S(C)(=O)=O)CCOCC4)ccc3s2)c1` [Example 34, N-(3-chloro-5-(2-(4-chlorophenyl)propan-2-yl)phenyl)-5-(4-(methylsulfonyl)tetrahydro-2H-pyran-4-yl)benzo[b]thiophene-2-carboxamide], the IC50 was 8.7 µM in the assay with STAT3, greater than 1.1 µM in assay [1], greater than 1.1 µM in assay [2] and greater than 50 µM with STAT1.
As to `CC(C)(c1ccc2sc(C(=O)Nc3cc(OCCN)cc(Oc4ccc(Cl)cc4)c3)cc2c1)S(C)(=O)=O` [Example 94, N-(3-(2-aminoethoxy)-5-(4-chlorophenoxy)phenyl)-5-(2-(methylsulfonyl)propan-2-yl)benzo[b]thiophene-2-carboxamide], the IC50 in the assay on STAT3 was 5.2 µM; in assay [1], greater than 1.1 µM; in assay [2], greater than 1.1 µM; in the assay with STAT1, 13.3 µM.
Turning to `CC(C)(c1ccc2sc(C(=O)Nc3cc(Cl)cc(Oc4ccc(Cl)cc4)c3)cc2c1)S(C)(=O)=O` [Example 49, N-(3-chloro-5-(4-chlorophenoxy)phenyl)-5-(2-(methylsulfonyl)propan-2-yl)benzo[b]thiophene-2-carboxamide], the IC50 in the assay with STAT3 was 0.019 µM; in assay [1], 0.013 µM; in assay [2] it was 0.019 µM; in the assay on STAT1, greater than 50 µM.
Regarding `CC(C)(c1cc(Cl)cc(NC(=O)c2cc3cc(C(C)(C)S(C)(=O)=O)ccc3s2)c1)c1ccc(Cl)s1` [Example 27, N-(3-chloro-5-(2-(5-chlorothiophen-2-yl)propan-2-yl)phenyl)-5-(2-(methylsulfonyl)propan-2-yl)benzo[b]thiophene-2-carboxamide], the IC50 with STAT3 is 0.075 µM; in assay [1] it was 0.024 µM; in assay [2] it was 0.029 µM; with STAT1 it was greater than 50 µM.
As to `CN(c1ccc(Cl)cc1)c1cc(NC(=O)c2cc3cc(C(C)(C)S(C)(=O)=O)ccc3s2)cc(Cl)n1` [Example 100, N-(2-chloro-6-((4-chlorophenyl)(methyl)amino)pyridin-4-yl)-5-(2-(methylsulfonyl)propan-2-yl)benzo[b]thiophene-2-carboxamide], the IC50 is 0.07 µM in the assay on STAT3, 0.026 µM in assay [1], 0.14 µM in assay [2] and greater than 50 µM in the assay on STAT1.
As to `CC(C)(C)OC(=O)NCCOc1cc(NC(=O)c2cc3cc(C(C)(C)S(C)(=O)=O)ccc3s2)cc(Oc2ccc(Cl)cc2)c1` [Example 93, tert-butyl (2-(3-(4-chlorophenoxy)-5-(5-(2-(methylsulfonyl)propan-2-yl)benzo[b]thiophene-2-carboxamido)phenoxy)ethyl)carbamate], the IC50 with STAT3 was 0.072 µM; in assay [1], 0.1 µM; in assay [2], 0.26 µM; in the assay on STAT1 it was greater than 50 µM.
For `CC(C)(c1cc2cc(C(=O)Nc3cc(Cl)cc(Oc4ccc(Cl)cc4)c3)sc2cc1F)S(C)(=O)=O` [Example 44, N-(3-chloro-5-(4-chlorophenoxy)phenyl)-6-fluoro-5-(2-(methylsulfonyl)propan-2-yl)benzo[b]thiophene-2-carboxamide], the IC50 is 0.019 µM with STAT3, 0.019 µM in assay [1], 0.039 µM in assay [2] and greater than 50 µM with STAT1.
As to `CC(C)(c1ccc2sc(C(=O)Nc3cc(Cl)cc(Oc4cccc(OC(F)(F)F)c4)c3)cc2c1)S(C)(=O)=O` [Example 48, N-(3-chloro-5-(3-(trifluoromethoxy)phenoxy)phenyl)-5-(2-(methylsulfonyl)propan-2-yl)benzo[b]thiophene-2-carboxamide], the 50% inhibitory concentration (IC50) was 0.014 µM in the assay on STAT3, 0.008 µM in assay [1], 0.01 µM in assay [2] and greater than 50 µM with STAT1.
In the case of `CC(C)(c1ccc(Cl)cc1)c1cc(Cl)cc(NC(=O)c2cc3cc(CS(C)(=O)=O)ccc3s2)c1` [Example 21, N-(3-chloro-5-(2-(4-chlorophenyl)propan-2-yl)phenyl)-5-((methylsulfonyl)methyl)benzo[b]thiophene-2-carboxamide], the IC50 in the assay with STAT3 was 0.11 µM; in assay [1], 0.017 µM; in assay [2], 0.04 µM; in the assay with STAT1, greater than 50 µM.
For `CC1(C)CC(Oc2cc(Cl)cc(NC(=O)c3cc4cc(C(C)(C)S(C)(=O)=O)ccc4s3)c2)CC(C)(C)N1` [Example 92, N-(3-chloro-5-((2,2,6,6-tetramethylpiperidin-4-yl)oxy)phenyl)-5-(2-(methylsulfonyl)propan-2-yl)benzo[b]thiophene-2-carboxamide], the IC50 is 5.5 µM in the assay on STAT3, greater than 1.1 µM in assay [1], greater than 1.1 µM in assay [2] and 9.6 µM in the assay with STAT1.
With `CC(C)(c1ccc(F)cc1)c1cc(Cl)cc(NC(=O)c2cc3cc(C(C)(C)S(C)(=O)=O)ccc3s2)c1` [Example 18, N-(3-chloro-5-(2-(4-fluorophenyl)propan-2-yl)phenyl)-5-(2-(methylsulfonyl)propan-2-yl)benzo[b]thiophene-2-carboxamide], the IC50 with STAT3 was 0.031 µM; in assay [1], 0.023 µM; in assay [2] it was 0.056 µM; with STAT1 it was greater than 50 µM.
For the molecule `CC(C)(c1ccc2sc(C(=O)Nc3cc(Cl)cc(C4(c5ccc(Cl)cc5)CC4)c3)cc2c1)S(C)(=O)=O` [Example 97, N-(3-chloro-5-(1-(4-chlorophenyl)cyclopropyl)phenyl)-5-(2-(methylsulfonyl)propan-2-yl)benzo[b]thiophene-2-carboxamide], the IC50 in the assay on STAT3 is 0.025 µM; in assay [1] it was 0.016 µM; in assay [2], 0.028 µM; in the assay on STAT1 it was greater than 50 µM.
Regarding `CC(C)(c1ccc2sc(C(=O)Nc3cc(Cl)cc(Oc4ccc(F)c(Cl)c4)c3)cc2c1)S(C)(=O)=O` [Example 51, N-(3-chloro-5-(3-chloro-4-fluorophenoxy)phenyl)-5-(2-(methylsulfonyl)propan-2-yl)benzo[b]thiophene-2-carboxamide], the IC50 was 0.022 µM in the assay on STAT3, 0.0082 µM in assay [1], 0.031 µM in assay [2] and greater than 50 µM in the assay on STAT1.
In the case of `CC(C)(c1ccc(Cl)cc1)c1cc(NC(=O)c2cc3cc(C(C)(C)S(C)(=O)=O)ccc3s2)n(C(C)(C)C)n1` [Example 88, N-(1-(tert-butyl)-3-(2-(4-chlorophenyl)propan-2-yl)-1H-pyrazol-5-yl)-5-(2-(methylsulfonyl)propan-2-yl)benzo[b]thiophene-2-carboxamide], the IC50 in the assay with STAT3 is greater than 10 µM; in assay [1] it was greater than 1.1 µM; in assay [2] it was greater than 1.1 µM; in the assay with STAT1, greater than 50 µM.
As to `CC(C)(c1ccc2sc(C(=O)Nc3cc(Cl)cc(Oc4ccc(Cl)c(F)c4)c3)cc2c1)S(C)(=O)=O` [Example 54, N-(3-chloro-5-(4-chloro-3-fluorophenoxy)phenyl)-5-(2-(methylsulfonyl)propan-2-yl)benzo[b]thiophene-2-carboxamide], the half-maximal inhibitory concentration (IC50) was 0.014 µM in the assay on STAT3, 0.0059 µM in assay [1], 0.029 µM in assay [2] and greater than 50 µM in the assay with STAT1.
